Like-named read-outs stand apart in the source and are kept apart here. Marks after values point to notes of the source that are not given here.
Legend:
[1] = pKa determination of conjugates; type: physicochemical
[2] = Log P determination of conjugates; type: physicochemical
[3] = target: T1, human Na channels expressed in native cells (human atrial myocytes) (Homo sapiens, UniProt Q14524); experiment: Potency at sodium channels: whole-cell patch clamp of sodium current (INa) in isolated human atrial myocytes; type: cell-based
T1 construct: from tissue; host or cells: cardiomyocytes isolated from human atrial appendages
T1 sequence (Q14524 whole entry): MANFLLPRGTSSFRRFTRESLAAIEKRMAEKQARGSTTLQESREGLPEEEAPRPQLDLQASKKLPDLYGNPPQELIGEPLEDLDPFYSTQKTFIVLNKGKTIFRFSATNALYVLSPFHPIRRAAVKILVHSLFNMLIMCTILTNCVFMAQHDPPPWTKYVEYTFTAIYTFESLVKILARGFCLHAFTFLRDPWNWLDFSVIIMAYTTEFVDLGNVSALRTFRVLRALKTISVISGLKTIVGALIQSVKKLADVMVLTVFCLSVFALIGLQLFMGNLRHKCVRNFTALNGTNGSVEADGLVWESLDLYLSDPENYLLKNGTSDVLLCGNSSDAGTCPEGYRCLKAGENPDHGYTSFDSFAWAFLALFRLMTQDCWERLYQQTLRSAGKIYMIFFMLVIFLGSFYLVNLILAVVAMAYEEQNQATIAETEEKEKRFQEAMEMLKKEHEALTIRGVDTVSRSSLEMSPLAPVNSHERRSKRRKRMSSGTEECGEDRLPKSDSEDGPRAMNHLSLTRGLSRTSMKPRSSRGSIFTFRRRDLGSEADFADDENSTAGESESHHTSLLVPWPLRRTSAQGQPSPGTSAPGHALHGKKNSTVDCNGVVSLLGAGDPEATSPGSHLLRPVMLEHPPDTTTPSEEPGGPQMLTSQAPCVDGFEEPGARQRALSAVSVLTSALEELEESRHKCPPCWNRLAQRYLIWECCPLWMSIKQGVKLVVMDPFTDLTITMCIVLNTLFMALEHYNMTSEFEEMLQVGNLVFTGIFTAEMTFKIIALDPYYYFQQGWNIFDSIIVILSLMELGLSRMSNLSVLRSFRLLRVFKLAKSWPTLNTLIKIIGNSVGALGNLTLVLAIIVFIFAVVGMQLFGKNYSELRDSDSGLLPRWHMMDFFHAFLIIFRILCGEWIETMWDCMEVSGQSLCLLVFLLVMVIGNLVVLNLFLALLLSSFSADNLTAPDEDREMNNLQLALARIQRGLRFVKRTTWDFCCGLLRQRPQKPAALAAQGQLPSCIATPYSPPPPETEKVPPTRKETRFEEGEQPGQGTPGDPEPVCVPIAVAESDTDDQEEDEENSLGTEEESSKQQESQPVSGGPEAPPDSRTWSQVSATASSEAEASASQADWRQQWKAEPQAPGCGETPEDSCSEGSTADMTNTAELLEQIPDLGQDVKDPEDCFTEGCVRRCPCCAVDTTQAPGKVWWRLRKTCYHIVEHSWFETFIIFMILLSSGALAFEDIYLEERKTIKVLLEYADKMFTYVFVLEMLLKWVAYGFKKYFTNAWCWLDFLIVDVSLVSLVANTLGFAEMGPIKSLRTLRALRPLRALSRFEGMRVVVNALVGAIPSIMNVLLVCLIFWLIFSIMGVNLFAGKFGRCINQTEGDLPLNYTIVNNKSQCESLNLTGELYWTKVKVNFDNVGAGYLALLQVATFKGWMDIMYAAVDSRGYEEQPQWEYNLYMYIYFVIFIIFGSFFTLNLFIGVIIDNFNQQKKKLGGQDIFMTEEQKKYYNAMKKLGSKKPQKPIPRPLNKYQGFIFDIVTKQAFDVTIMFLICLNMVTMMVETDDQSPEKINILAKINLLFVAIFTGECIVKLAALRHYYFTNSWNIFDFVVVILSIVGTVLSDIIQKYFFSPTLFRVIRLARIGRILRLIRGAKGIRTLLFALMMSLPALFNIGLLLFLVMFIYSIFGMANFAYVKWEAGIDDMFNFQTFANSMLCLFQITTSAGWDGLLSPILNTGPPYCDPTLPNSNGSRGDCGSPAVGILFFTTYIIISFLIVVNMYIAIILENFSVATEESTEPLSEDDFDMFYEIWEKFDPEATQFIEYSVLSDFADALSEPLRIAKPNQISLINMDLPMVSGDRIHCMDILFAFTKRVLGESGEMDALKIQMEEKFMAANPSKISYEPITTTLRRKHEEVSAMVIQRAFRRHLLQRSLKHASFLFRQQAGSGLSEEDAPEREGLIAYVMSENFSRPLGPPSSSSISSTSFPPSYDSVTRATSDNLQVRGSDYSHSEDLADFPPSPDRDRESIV
Method: Experiments were performed at 23±1° C. Currents were measured using the whole-cell variant of the patch clamp method. An Axopatch 1-B amplifier (Axon Instruments, Foster City, Calif.) was used for whole-cell voltage clamping. […] Peak inward current was measured for INa. […] Creation of voltage clamp pulses and data acquisition were controlled by a PC running pClamp software (version 9.2, Axon Instruments). Test compounds were added in a cumulative manner. Data are presented as % reduction of current amplitude. […] Each cell served as its own control. Log-linear plots were created of the mean percent blockade ±SEM at the concentrations tested. Nonlinear curve fitting routine was utilized to fit a three-parameter Hill equation to the results using MicroCal Origin, version 6.0 software.

[4] = tested on: CB-1 male mice; experiment: Analgesic assay: acetic acid writhing test; type: in vivo
Method: An analgesic assay was used to determine whether a given compound can reduce and/or prevent visceral pain in mice.
The assay utilized CB-1 male mice (5-8 mice per group), each mouse being approximately 0.015-0.030 kg on the study day. Mice were treated according to standard protocols.
Mice were given a single “pretreatment” dose of a compound lacking covalent attachment of a water-soluble, non-peptidic oligomer, a corresponding conjugate comprising the compound covalently attached to a water-soluble, non-peptidic oligomer, or control solution (IV, SC, IP or orally) thirty minutes prior to the administration of the acetic acid solution. The animal was given an IP injection of an irritant (acetic acid) that induces “writhing” which may include: contractions of the abdomen, twisting and turning of the trunk, arching of the back and the extension of the hind limbs. […] After the injection the animals were returned to their cages and their behavior was observed. Contractions were counted between 0 and 20 minutes after the injection. The animals were used once. […]

[5] = mexiletine series, IC50 at 0.1 Hz relative to mexiletine
[6] = lidocaine series, IC50 at 0.1 Hz relative to lidocaine
[7] = 10 mg/kg, SC, 30 min before IP 0.5% acetic acid, counted 0-20 min
[8] = 10 mg/kg, SC, animals with writhes ≤ upper 95% confidence limit for morphine
[9] = 10 mg/kg, SC, responding animals/N
[10] = lidocaine series, peak INa, human atrial myocytes, pacing 0.1 Hz, 23±1° C

Row | Molecule | pKa1 ([1]; Table 2, mexiletine conjugates) | logP ([2]; read-out: LogP) | Fold Change vs. Parent [3, 5] | IC50 ([3]; read-out: IC50 at 0.1 Hz) | Fold Change vs. Parent [3, 6] | % Reduction in Writhing ([4]; 10 mg/kg, SC) | Mean (writhes) [4, 7] | # of Responders [4, 8] | Responding Fraction [4, 9] | other results
1 | COCCOCCOCCNC(C)COc1c(C)cccc1C (stereo not drawn) [N-mPEG3-Mexiletine, N-mPEG3-mexiletine] | 8.27 | 2.26 | 5 | 284 µM |  |  |  |  |  | 
2 | CCN(CCOCCOCCOC)CC(=O)Nc1c(C)cccc1C [mPEG3-Lidocaine, mPEG3-lidocaine] |  | 1.55 |  | 706 µM | 7 |  |  |  |  | pKa ([1]; read-out: pKa): 6.46
3 | CCN(CCOCCOCCOCCOC)CC(=O)Nc1c(C)cccc1C [mPEG4-Lidocaine, mPEG4-lidocaine] |  | 1.42 |  | 178 µM | 2 |  |  |  |  | pKa ([1]; read-out: pKa): 6.46
4 | CCN(CCOCCOCCOCCOCCOCCO)CC(=O)Nc1c(C)cccc1C [PEG6-Lidocaine, HO-PEG6-Lidocaine] |  |  |  | 104 µM | 1 |  |  |  |  | 
5 | CCN(CC)CC(=O)Nc1c(C)cccc1C [Lidocaine, lidocaine, reference compound] |  |  |  |  |  | 37.5% | 36.3 | 2 | 0.50 | 
6 | CCNCCOCCOCCOCCOCCN(CC)CC(=O)Nc1c(C)cccc1C [EtNH-PEG5-Lidocaine, EtNH-PEG5-lidocaine] |  |  |  | 99.3 µM | 1 |  |  |  |  | 
7 | CCN(CCOCCOCCOCCOCCOCCOCCOCCOCCOC)CC(=O)Nc1c(C)cccc1C [mPEG9-Lidocaine, mPEG9-lidocaine] |  | 0.82 |  | 173 µM | 2 |  |  |  |  | pKa ([1]; read-out: pKa): 6.57
8 | CCN(CCOCCOCCOCCOCCOC)CC(=O)Nc1c(C)cccc1C [mPEG5-Lidocaine, mPEG5-lidocaine] |  |  |  |  | 1 |  |  |  |  | pKa ([1]; Table 1, lidocaine conjugates): 6.46; logP ([2]; Table 1, lidocaine conjugates): 1.01; IC50 [3, 10]: 53.5 µM
9 | CCN(CCOCCOCCOCCOCCOCCOCCOC)CC(=O)Nc1c(C)cccc1C [mPEG7-Lidocaine, mPEG7-lidocaine] |  |  |  |  | 2 | 40.5% | 36.0 | 2 | 0.40 | pKa ([1]; Table 1, lidocaine conjugates): 6.81; logP ([2]; Table 1, lidocaine conjugates): 1.37; IC50 [3, 10]: 236 µM
10 | CCN(CCOCCOCCOCCOCCOCCOCCOCCOC)CC(=O)Nc1c(C)cccc1C [mPEG8-Lidocaine, mPEG8-lidocaine] |  | 0.63 |  | 57.5 µM | 1 | 37.2% | 38.0 | 2 | 0.40 | pKa ([1]; read-out: pKa): 6.43
11 | COCCOCCOCCOCCOCCNC(C)COc1c(C)cccc1C (stereo not drawn) [N-mPEG5-Mexiletine, N-mPEG5-mexiletine] | 8.27 | 4.51 |  |  |  | 42.4% | 29.0 | 2 | 0.40 | pKa2 ([1]; Table 2, mexiletine conjugates): 7.86
12 | Cc1cccc(C)c1OCC(C)NCCOCCOCCOCCNC(C)COc1c(C)cccc1C (stereo not drawn) [PEG4-Di-Mexiletine, PEG4-di-Mexiletine] | 7.73 | 2.36 | 0.14 | 7.32 µM |  |  |  |  |  | 
13 | COCCOCCOCCOCCOCCN(CCOCCOCCOCCOCCOC)C(C)COc1c(C)cccc1C (stereo not drawn) [N,N-Di-mPEG5-Mexiletine, N,N-di-mPEG5-mexiletine] | 8.26 | 1.61 | 2 | 95.9 µM |  |  |  |  |  | 
14 | CCN(CCOCCOCCOCCOCCOCCOC)CC(=O)Nc1c(C)cccc1C [mPEG6-Lidocaine, mPEG6-lidocaine] |  | 1.23 |  | 473 µM | 5 |  |  |  |  | pKa ([1]; read-out: pKa): 6.46
15 | COCCOCCOCCOCCOCCOCCOCCN(CCOCCOCCOCCOCCOCCOCCOC)C(C)COc1c(C)cccc1C (stereo not drawn) [N,N-Di-mPEG7-Mexiletine, N,N-di-mPEG7-mexiletine] | 7.75 | 0.83 | 2 | 130 µM |  |  |  |  |  | 
16 | COCCOCCOCCOCCOCCOCCOCCOCCNC(C)COc1c(C)cccc1C (stereo not drawn) [N-mPEG8-Mexiletine, N-mPEG8-mexiletine] | 8.79 | 1.79 | 2 | 90.5 µM |  | 65.8% | 17.2 | 3 | 0.60 | 
17 | COCCOCCOCCN(CCOCCOCCOC)C(C)COc1c(C)cccc1C (stereo not drawn) [N,N-Di-mPEG3-Mexiletine, N,N-di-mPEG3-mexiletine] | 7.76 | 1.96 | 1 | 66.2 µM |  |  |  |  |  | 
18 | COCCOCCOCCOCCCNC(C)COc1c(C)cccc1C (stereo not drawn) [N-mPEG3-C3-Mexiletine, N-mPEG3-C3-mexiletine] | 8.98 | 2.05 | 4 | 188 µM |  | 46.3% | 29.8 | 2 | 0.40 | 
19 | CCN(CCOCCOCCOCCOCCO)CC(=O)Nc1c(C)cccc1C [PEG5-Lidocaine, HO-PEG5-Lidocaine] |  |  |  | 330 µM | 3 |  |  |  |  | 
20 | PEG5-di-lidocaine [mPEG5-Di-Lidocaine] |  |  |  |  | 1 | 60.3* % | 17.3 | 2 | 0.50* | # of Responders ([4]; 3 mg/kg, SC): 2; % Reduction in Writhing ([4]; 3 mg/kg, SC): 46.0%; Responding Fraction ([4]; 3 mg/kg, SC): 0.50; Mean (writhes) ([4]; 3 mg/kg, SC, 30 min before IP 0.5% acetic acid, counted 0-20 min): 23.5; IC50 [3, 10]: 83.3 µM
21 | COCCOCCOCCOCCOCCOCCOCCNC(C)COc1c(C)cccc1C (stereo not drawn) [N-mPEG7-Mexiletine, N-mPEG7-mexiletine] | 8.26 | 1.23 | 4 | 206 µM |  |  |  |  |  | 
22 | PEG6-di-lidocaine [mPEG6-Di-Lidocaine] |  |  |  |  | 2 | 37.9% | 27.0 | 3 | 0.60 | IC50 [3, 10]: 236 µM
23 | CN1CC[C@]23c4c5ccc(O)c4O[C@H]2[C@@H](O)C=C[C@H]3[C@H]1C5 [Morphine, morphine, reference compound] |  |  |  |  |  |  |  |  |  | # of Responders ([4]; historical morphine data, N 27, animals with writhes ≤ upper 95% confidence limit for morphine): 15; Mean (writhes) ([4]; historical morphine data, contractions counted 0-20 min after IP 0.5% acetic acid, group table: SC 0.5 mg/kg): 21.33; % Reduction in Writhing ([4]; historical morphine data, group table: SC 0.5 mg/kg): 57%; Responding Fraction ([4]; historical morphine data, responding animals/N): 0.56
24 | CN(C)C(=O)C(CCN1CCC(O)(c2ccc(Cl)cc2)CC1)(c1ccccc1)c1ccccc1 [Loperamide, reference compound] |  |  |  |  |  |  |  |  |  | # of Responders ([4]; 0.75 mg/kg, SC): 4; % Reduction in Writhing ([4]; 0.75 mg/kg, SC): 78.6%; Responding Fraction ([4]; 0.75 mg/kg, SC): 1.00; Mean (writhes) ([4]; 0.75 mg/kg, SC, 30 min before IP 0.5% acetic acid, counted 0-20 min): 9.0

From patent publication US20190002399A1 (Nektar Therapeutics, priority 2007, published 2019)
